Reference: patent publication US7612113B2, “Hydroxy tetrahydro-naphthalenylurea derivatives” (Xention Limited, priority 2002, dated 2009)
Like-named read-outs stand apart in the source and are kept apart here.

Molecular target: T1, human VR1 (Homo sapiens, UniProt Q8NER1)
T1 construct: expressed in transfected cells
Experiment: capsaicin-induced Ca2+ influx in the human VR1-transfected CHO cell line (Assay 1)
Format: cell-based
Details: 10 nM capsaicin, human VR1-CHOluc9aeq cells
Text: [Measurement of capsaicin-induced Ca^2+ influx in the human VR1-transfected CHO cell line] (Assay 1)
• (1) Establishment of the Human VR1-CHOluc9aeq Cell Line • Human vanilloid receptor (hVR1) cDNA was cloned from libraries of axotomized dorsal root ganglia (WO 00/29577). The cloned hVR1 cDNA was constructed with pcDNA3 vector and transfected into a CHOluc9aeq cell line. The cell line contains aequorin and CRE-luciferase reporter genes as read-out signals. The transfectants were cloned by limiting dilution in selection medium (DMEM/F12 medium (Gibco BRL) supplemented with 10% FCS, 1.4 mM Sodium pyruvate, 20 mM HEPES, 0.15% Sodium bicarbonate, 100 U/ml penicillin, 100 μg/ml streptomycin, 2 mM glutamine, non-essential amino acids and 2 mg/ml G418). Ca^2+ influx was examined in the capsaicin-stimulated clones. A high responder clone was selected and used for further experiments in the project. The human VR1-CHOluc9aeq cells were maintained in the selection medium and passaged every 3-4 days at 1-2.5×10^5 cells/flask ([…]). • (2) Measurement of Ca^2+ Influx Using FDSS-3000 • Human VR1-CHOluc9aeq cells were suspended in a culture medium which is the same as the selection medium except for G418 and seeded at a density of 1,000 cells per well into 384-well plates (black walled clear-base/Nalge Nunc International). Following the culture for 48 hrs the medium was changed to 2 μM Fluo-3 AM (Molecular Probes) and 0.02% Puronic F-127 in assay buffer (Hank's balanced salt solution (HBSS), 17 mM HEPES (pH7.4), 1 mM Probenecid, 0.1% BSA) and the cells were incubated for 60 min at. 25° C. After washing twice with assay buffer the cells were incubated with a test compound or vehicle for 20 min at 25° C. Mobilization of cytoplasmic Ca^2+ was measured by FDSS-3000 (λex=488 nm, λem=540 nm/Hamamatsu Photonics) for 60 sec after the stimulation with 10 nM capsaicin. Integral R was calculated and compared with controls. [Measurement of the Capsaicin-Induced Ca^2+ Influx in Primary Cultured Rat Dorsal Root Ganglia Neurons] (Assay 2) • (1) Preparation of Rat Dorsal Root Ganglia Neurons • New born Wister rats (5-11 days) were sacrificed and dorsal root ganglia (DRG) was removed. DRG was incubated with 0.1% trypsin (Gibco BRL) in PBS(−) (Gibco BRL) for 30 min at 37° C., then a half volume of fetal calf serum (FCS) was added and the cells were spun down. The DRG neuron cells were resuspended in Ham F12/5% FCS/5% horse serum (Gibco BRL) and dispersed by repeated pipetting and passing through 70 μm mesh Falcon). The culture plate was incubated for 3 hours at 37° C. to remove contaminating Schwann cells. Non-adherent cells were recovered and further cultured in laminin-coated 384 well plates (Nunc) at 1×10^4 cells/50 μl/well for 2 days in the presence of 50 ng/ml recombinant rat NGF (Sigma) and 50 μM 5-fluorodeoxyuridine (Sigma). • (2) Ca^2+ Mobilization Assay • DRG neuron cells were washed twice with HBSS supplemented with 17 mM HEPES (pH 7.4) and 0.1% BSA. After incubating with 2 μM fluo-3AM (Molecular Probe), 0.02% PF127 (Gibco BRL) and 1 mM probenecid (Sigma) for 40 min at 37° C., cells were washed 3 times. The cells were incubated with VR1 antagonists or vehicle (dimethylsulphoxide) and then with 1 μM capsaicin in FDSS-6000 (λex=480 nm, λem=520 nm/Hamamatsu Photonics). The fluorescence changes at 480 nm were monitored for 2.5 min. Integral R was calculated and compared with controls. [Organ Bath Assay to Measure the Capsaicin-Induced Bladder Contraction] (Assay 3)
The data corresponds to the compounds as yielded by solid phase synthesis and thus to levels of purity of about 40 to 90%. For practical reasons, the compounds are grouped in four classes of activity as follows: IC50=A(<or=)0.1 μM<B(<or=)0.5 μM<C(<or=)1 μM<D

[1] = read-out: In vitro activity class
[2] = Table 1, read-out: activity class
[3] = Table 2, read-out: activity class
[4] = Table 3, read-out: activity class

T1 sequence (Q8NER1 whole entry): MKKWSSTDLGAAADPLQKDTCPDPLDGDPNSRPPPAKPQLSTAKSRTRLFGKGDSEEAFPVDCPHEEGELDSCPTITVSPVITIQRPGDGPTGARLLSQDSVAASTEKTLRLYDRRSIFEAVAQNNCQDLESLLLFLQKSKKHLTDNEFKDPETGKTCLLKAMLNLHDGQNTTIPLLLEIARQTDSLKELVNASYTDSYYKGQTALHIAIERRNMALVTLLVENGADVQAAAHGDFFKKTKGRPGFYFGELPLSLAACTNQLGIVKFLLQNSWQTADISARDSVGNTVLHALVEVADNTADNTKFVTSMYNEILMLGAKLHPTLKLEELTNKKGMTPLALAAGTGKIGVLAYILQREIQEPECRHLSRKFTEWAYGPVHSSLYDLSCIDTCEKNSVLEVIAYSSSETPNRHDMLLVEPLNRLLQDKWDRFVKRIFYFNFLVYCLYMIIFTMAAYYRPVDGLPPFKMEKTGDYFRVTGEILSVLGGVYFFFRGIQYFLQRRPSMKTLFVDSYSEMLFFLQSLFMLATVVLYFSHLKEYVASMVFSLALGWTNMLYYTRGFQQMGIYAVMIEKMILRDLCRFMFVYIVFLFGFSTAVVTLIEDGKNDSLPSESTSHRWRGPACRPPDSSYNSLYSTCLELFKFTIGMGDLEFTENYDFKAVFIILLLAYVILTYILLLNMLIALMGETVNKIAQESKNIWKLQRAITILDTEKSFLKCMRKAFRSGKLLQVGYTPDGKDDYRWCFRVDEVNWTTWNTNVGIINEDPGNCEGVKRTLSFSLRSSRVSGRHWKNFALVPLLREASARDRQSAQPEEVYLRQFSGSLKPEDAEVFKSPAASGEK

O=C(Nc1ccccc1)Nc1cccc2c1CC(O)CC2 (centres unmarked) [Example 2-1, N-phenyl-N′-(7-hydroxy-5,6,7,8-tetrahydro-1-naphthalenyl) urea]
IC50 [1]: 500 to 1000 nM

Cc1cc(NC(=O)Nc2cccc3c2CC(O)CC3)ccc1Cl (centres unmarked) [Example 2-36]
IC50 [2]: < 100 nM

COc1cc(NC(=O)Nc2cccc3c2CC(O)CC3)cc(OC)c1 (centres unmarked) [Example 2-37]
IC50 [2]: < 100 nM

O=C(NCc1ccc(OC(F)(F)F)cc1)Nc1cccc2c1CC(O)CC2 (centres unmarked) [Example 4-1, N-(7-hydroxy-5,6,7,8-tetrahydro-naphthalen-1-yl)-N′-(4-trifluoromethoxy-benzyl)-urea]
IC50 [1]: < 100 nM

O=C(NCc1ccc(OC(F)(F)F)cc1)Nc1cccc2c1C[C@H](O)CC2 [Example 4-2, N-{(R)-7-hydroxy-5,6,7,8-tetrahydro-naphthalen-1-yl}-N′-(4-trifluoromethoxy-benzyl)-urea]
IC50 [1]: < 100 nM

O=C(NCc1ccc(OC(F)(F)F)cc1)Nc1cccc2c1C[C@@H](O)CC2 [Example 4-3, N-{(S)-7-hydroxy-5,6,7,8-tetrahydro-naphthalen-1-yl}-N′-(4-trifluoromethoxy-benzyl)-urea]
IC50 [1]: < 100 nM

O=C(NCc1ccc(C(F)(F)F)cc1)Nc1cccc2c1C[C@@H](O)CC2 [Example 4-5, N-{(S)-7-hydroxy-5,6,7,8-tetrahydro-naphthalen-1-yl}-N′-(4-trifluoromethyl-benzyl)-urea]
IC50 [1]: < 100 nM

O=C(NCc1ccccc1)Nc1cccc2c1CC(O)CC2 (centres unmarked) [Example 4-6]
IC50 [3]: 100 to 500 nM

O=C(NCc1ccc(Br)cc1)Nc1cccc2c1CC(O)CC2 (centres unmarked) [Example 4-7]
IC50 [3]: < 100 nM

O=C(NCc1ccc(C(F)(F)F)cc1)Nc1cccc2c1CC(O)CC2 (centres unmarked) [Example 4-8]
IC50 [3]: < 100 nM

O=C(NCc1ccc(Cl)cc1)Nc1cccc2c1CC(O)CC2 (centres unmarked) [Example 4-9]
IC50 [3]: < 100 nM

O=C(NCc1cccc(C(F)(F)F)c1)Nc1cccc2c1CC(O)CC2 (centres unmarked) [Example 4-10]
IC50 [3]: < 100 nM

COc1ccccc1CNC(=O)Nc1cccc2c1CC(O)CC2 (centres unmarked) [Example 4-11]
IC50 [3]: 100 to 500 nM

O=C(NCc1ccc(F)c(F)c1)Nc1cccc2c1CC(O)CC2 (centres unmarked) [Example 4-12]
IC50 [3]: < 100 nM

COc1cccc(CNC(=O)Nc2cccc3c2CC(O)CC3)c1 (centres unmarked) [Example 4-13]
IC50 [3]: 100 to 500 nM

O=C(NCc1cccc(Cl)c1)Nc1cccc2c1CC(O)CC2 (centres unmarked) [Example 4-14]
IC50 [3]: < 100 nM

O=C(NCc1ccc(Cl)cc1Cl)Nc1cccc2c1CC(O)CC2 (centres unmarked) [Example 4-15]
IC50 [3]: < 100 nM

CC(C)(C)c1ccc(CNC(=O)Nc2cccc3c2CC(O)CC3)cc1 (centres unmarked) [Example 4-16]
IC50 [3]: < 100 nM

O=C(NCc1ccc(OC(F)(F)F)cc1)Nc1cccc2c1CC(O)CC2 (centres unmarked) [Example 4-17]
IC50 [3]: < 100 nM

O=C(NCc1ccc(Cl)c(Cl)c1)Nc1cccc2c1CC(O)CC2 (centres unmarked) [Example 4-18]
IC50 [3]: < 100 nM

O=C(NCc1ccccc1C(F)(F)F)Nc1cccc2c1CC(O)CC2 (centres unmarked) [Example 4-19]
IC50 [3]: < 100 nM

COc1ccc(CNC(=O)Nc2cccc3c2CC(O)CC3)c(OC)c1 (centres unmarked) [Example 4-20]
IC50 [3]: 100 to 500 nM

O=C(NCc1ccccc1Br)Nc1cccc2c1CC(O)CC2 (centres unmarked) [Example 4-21]
IC50 [3]: < 100 nM

COC(=O)c1ccc(CNC(=O)Nc2cccc3c2CC(O)CC3)cc1 (centres unmarked) [Example 4-22]
IC50 [3]: < 100 nM

COc1cc(OC)c(CNC(=O)Nc2cccc3c2CC(O)CC3)c(OC)c1 (centres unmarked) [Example 4-23]
IC50 [3]: 500 to 1000 nM

O=C(NCc1cccc(Br)c1)Nc1cccc2c1CC(O)CC2 (centres unmarked) [Example 4-24]
IC50 [3]: < 100 nM

O=C(NCc1ccc([N+](=O)[O-])cc1)Nc1cccc2c1CC(O)CC2 (centres unmarked) [Example 4-25]
IC50 [3]: < 100 nM

O=C(NCc1cc(C(F)(F)F)cc(C(F)(F)F)c1)Nc1cccc2c1CC(O)CC2 (centres unmarked) [Example 4-26]
IC50 [3]: < 100 nM

COc1ccc(CNC(=O)Nc2cccc3c2CC(O)CC3)cc1OC (centres unmarked) [Example 4-27]
IC50 [3]: 500 to 1000 nM

O=C(NCc1c(F)cccc1F)Nc1cccc2c1CC(O)CC2 (centres unmarked) [Example 4-28]
IC50 [3]: 500 to 1000 nM

O=C(NCc1cccc(OC(F)(F)F)c1)Nc1cccc2c1CC(O)CC2 (centres unmarked) [Example 4-29]
IC50 [3]: < 100 nM

O=C(NCc1ccc(C(=O)O)cc1)Nc1cccc2c1CC(O)CC2 (centres unmarked) [Example 4-30]
IC50 [3]: 500 to 1000 nM

Nc1ccc(CNC(=O)Nc2cccc3c2CC(O)CC3)cc1 (centres unmarked) [Example 4-31]
IC50 [3]: 500 to 1000 nM

Nc1ccccc1CNC(=O)Nc1cccc2c1CC(O)CC2 (centres unmarked) [Example 4-32]
IC50 [3]: 500 to 1000 nM

CCOC(=O)Cc1ccc(NC(=O)Nc2cccc3c2CC(O)CC3)cc1 (centres unmarked) [Example 4-33]
IC50 [3]: 100 to 500 nM

CN(C)c1ccc(CNC(=O)Nc2cccc3c2CC(O)CC3)cc1 (centres unmarked) [Example 4-34]
IC50 [3]: < 100 nM

O=C(NCc1ccc(Cl)c(C(F)(F)F)c1)Nc1cccc2c1CC(O)CC2 (centres unmarked) [Example 4-35]
IC50 [3]: < 100 nM

O=C(NCCc1ccc(Cl)cc1)Nc1cccc2c1CC(O)CC2 (centres unmarked) [Example 4-36]
IC50 [3]: < 100 nM

O=C(NCc1ccc(C(F)(F)F)c(F)c1)Nc1cccc2c1CC(O)CC2 (centres unmarked) [Example 4-37]
IC50 [3]: < 100 nM

Cc1ccc(Oc2ccc(NC(=O)Nc3cccc4c3CC(O)CC4)cc2)cc1 (centres unmarked) [Example 4-38]
IC50 [3]: < 100 nM

O=C(Nc1ccc(Oc2ccc(Cl)cc2)cc1)Nc1cccc2c1CC(O)CC2 (centres unmarked) [Example 4-39]
IC50 [3]: < 100 nM

O=C(Nc1ccc(OC(F)(F)F)cc1)Nc1cccc2c1CC(O)CC2 (centres unmarked) [Example 4-40]
IC50 [3]: < 100 nM

CC(NC(=O)Nc1cccc2c1CC(O)CC2)c1ccc(F)cc1 (centres unmarked) [Example 4-41]
IC50 [3]: 100 to 500 nM

CC(NC(=O)Nc1cccc2c1CC(O)CC2)c1ccc(Br)cc1 (centres unmarked) [Example 4-42]
IC50 [3]: < 100 nM

O=C(Nc1cccc2c1CC(O)CC2)NC(c1ccccc1)c1ccccc1 (centres unmarked) [Example 4-43]
IC50 [3]: 500 to 1000 nM

CC(C)(NC(=O)Nc1cccc2c1CC(O)CC2)c1ccc(Cl)cc1 (centres unmarked) [Example 4-44]
IC50 [3]: 100 to 500 nM

O=C(NCc1ccc(SC(F)(F)F)cc1)Nc1cccc2c1CC(O)CC2 (centres unmarked) [Example 4-45]
IC50 [3]: < 100 nM

O=C(NCc1cccc2ccccc12)Nc1cccc2c1CC(O)CC2 (centres unmarked) [Example 4-46]
IC50 [3]: < 100 nM

N#CCc1ccc(NC(=O)Nc2cccc3c2CC(O)CC3)cc1 (centres unmarked) [Example 4-47]
IC50 [3]: 100 to 500 nM

CC(NC(=O)Nc1cccc2c1CC(O)CC2)c1ccccc1 (centres unmarked) [Example 4-48]
IC50 [3]: 100 to 500 nM

CC(NC(=O)Nc1cccc2c1CC(O)CC2)c1cccc2ccccc12 (centres unmarked) [Example 4-49]
IC50 [3]: < 100 nM

NS(=O)(=O)c1ccc(CNC(=O)Nc2cccc3c2CC(O)CC3)cc1 (centres unmarked) [Example 4-50]
IC50 [3]: 500 to 1000 nM

O=C(NCc1ccc(C(F)(F)F)c(NC2CCCC2)c1)Nc1cccc2c1CC(O)CC2 (centres unmarked) [Example 4-51]
IC50 [3]: < 100 nM

O=C(NCc1ccc(C(F)(F)F)c(NC2CCCC2)c1)Nc1cccc2c1CC(O)CC2 (centres unmarked) [Example 4-52]
IC50 [3]: < 100 nM

O=C(NCCc1ccc(Cl)cc1)Nc1cccc2c1C[C@H](O)CC2 [Example 4-53]
IC50 [3]: < 100 nM

O=C(NCCc1ccc(Cl)cc1)Nc1cccc2c1C[C@@H](O)CC2 [Example 4-54]
IC50 [3]: < 100 nM

O=C(Nc1ccccc1F)Nc1cccc2c1CC(O)CC2 (centres unmarked) [Example 5-2]
IC50 [4]: 500 to 1000 nM

O=C(Nc1cccc(Br)c1)Nc1cccc2c1CC(O)CC2 (centres unmarked) [Example 5-5]
IC50 [4]: < 100 nM

Cc1ccc(NC(=O)Nc2cccc3c2CC(O)CC3)cc1 (centres unmarked) [Example 5-7]
IC50 [4]: 100 to 500 nM

CC(C)c1cccc(NC(=O)Nc2cccc3c2CC(O)CC3)c1 (centres unmarked) [Example 5-8]
IC50 [4]: < 100 nM

CC(C)(C)c1ccc(NC(=O)Nc2cccc3c2CC(O)CC3)cc1 (centres unmarked) [Example 5-9]
IC50 [4]: < 100 nM

COc1cc(NC(=O)Nc2cccc3c2CC(O)CC3)cc(C(F)(F)F)c1 (centres unmarked) [Example 5-12]
IC50 [4]: < 100 nM
